Test results as given in publication PMC12736120, “First-in-Human Phase I Clinical Trial of SLC-391, a Novel and Selective AXL Inhibitor, in Patients with Advanced Solid Tumours” (Pharmaceuticals, 2025).
Where two headings read alike, the source gives them in different places.

Experiment: Plasma pharmacokinetics, QD and BID cohorts (non-compartmental)
Assay type: in vivo, human
Settings: for Cmax / Tmax / AUC / AUC(0-t) / concentration at 21 days: human, plasma, oral; for concentration at 21 days: read-out: Cmin, range across cohorts
Procedure: PK parameters were calculated by standard non-compartmental methods for SLC-391. Due to the long half-life of SLC-391 compared to the dosing interval, it was not possible to calculate a number of PK parameters, including plasma half-life and rate of elimination. Accumulation was assessed from the mean accumulation ratio factor (AR factor) calculated as the repeated dose (C1D21) mean value/single dose (C1D1) mean value for the PK parameters Cmax, AUC0–12, and AUC0–last for each dose group.
During QD dosing, blood samples for determination of SLC-391 plasma concentrations were collected predose and at 0.5, 1, 2, 3, 4, 6, 8, and 24 h after SLC-391 administration on cycle 1 day 1 (C1D1) and cycle 1 day 21 (C1D21). During BID dosing, blood samples were collected predose and at 1, 2, 3, 4, 6, 8, and 12 h after the first daily dose (before the second daily dose). Where possible, further samples were then collected at 13, 14, 22, and 24 h after the initial dose (predose C1D2). Blood samples were also collected on C1D21 (steady state) predose and at 1, 2, 3, 4, 6, 8, and 12 h after the first daily dose (before the second daily dose). Where possible, further samples were then collected at 13, 14, 22, and 24 h after the initial C1D21 dose (predose C2D1). An additional blood sample was also taken, where possible, at the end of treatment (EOT) visit.
After collection, blood samples were centrifuged, and plasma was separated and stored at −80 °C. Plasma concentrations of SLC-391 were measured by a validated analytical method involving liquid–liquid extraction followed by high-performance liquid chromatography (HPLC)–mass/mass spectroscopy assay using a Water Quattro Premier tandem quadrupole mass spectroscopy with Waters MassLynx data acquisition and processing software. Plasma analysis was carried out by Microconstants (San Diego, CA, USA) in compliance with the US FDA GLP regulations. The calibration range of the assay was from 0.100 to 100 ng/mL. Quality control samples prepared at 4 different analyte concentrations were analysed with each batch of samples against a separately prepared calibration standard. PK parameters were collected following single (day 1) and repeat dose (day 21) administration. PK parameters were summarised with appropriate descriptive statistics where possible (e.g., mean, geometric mean, median, maximum, minimum, and coefficient of variation). Descriptive PK parameters were determined by standard non-compartmental methods based on the concentration–time data of each subject. The nominal time was used for descriptive statistics calculations, and the actual sample collection times were used in PK analyses. PK analyses were performed using validated Phoenix WinNonlin Professional 8.3 (Certara, L.P., St. Louis, MO, USA).

## Nc1ncc(-c2cnn(C3CCNCC3)c2)cc1-c1nnc(CC2CC2)o1 [SLC-391, 3-(5-[cyclopropylmethyl]-1,3,4-oxadiazol-2-yl)-5-(1-[piperidin-4-yl]-1H-pyrazol-4-yl)-pyridin-2-amine]
110 mg, 110 mg BID, C1D1, median, n=3, plasma, read-out: Cmax
  Cmax: 93.1 ng/mL
110 mg, 110 mg BID, C1D1, median, n=3, plasma, read-out: Tmax
  Tmax: 3 h
110 mg, 110 mg BID, C1D21, mean, n=3, plasma, read-out: AUC0–12
  AUC: 2260 ng·h/mL
110 mg, 110 mg BID, C1D21, mean, n=3, plasma, read-out: AUC0–last
  AUC(0-t): 4280 ng·h/mL
110 mg, 110 mg BID, C1D21, mean, n=3, plasma, read-out: Cmax
  Cmax: 249 ng/mL
110 mg, 110 mg BID, C1D21, mean, n=3, plasma, read-out: Tmax
  Tmax: 2.4 h
110 mg, 110 mg BID, C1D21, median, n=3, plasma, read-out: AUC0–12
  AUC: 1390 ng·h/mL
110 mg, 110 mg BID, C1D21, median, n=3, plasma, read-out: AUC0–last
  AUC(0-t): 2560 ng·h/mL
110 mg, 110 mg BID, C1D21, median, n=3, plasma, read-out: Cmax
  Cmax: 187 ng/mL
110 mg, 110 mg BID, C1D21, median, n=3, plasma, read-out: Tmax
  Tmax: 2.1 h
125 mg, QD, C1D1, read-out: AUC0–12, Mean
  AUC: 672 ng·h/mL
125 mg, QD, C1D1, read-out: AUC0–12, Median
  AUC: 877 ng·h/mL
125 mg, QD, C1D1, read-out: AUC0–last, Mean
  AUC(0-t): 1040 ng·h/mL
125 mg, QD, C1D1, read-out: AUC0–last, Median
  AUC(0-t): 1280 ng·h/mL
125 mg, QD, C1D1, read-out: Cmax, Mean
  Cmax: 103 ng/mL
125 mg, QD, C1D1, read-out: Cmax, Median
  Cmax: 123 ng/mL
125 mg, QD, C1D1, read-out: Tmax, Mean
  Tmax: 2 h
125 mg, QD, C1D1, read-out: Tmax, Median
  Tmax: 2.1 h
125 mg, QD, C1D21, read-out: AUC0–12, Mean
  AUC: 1120 ng·h/mL
125 mg, QD, C1D21, read-out: AUC0–12, Median
  AUC: 1380 ng·h/mL
125 mg, QD, C1D21, read-out: AUC0–last, Mean
  AUC(0-t): 1840 ng·h/mL
125 mg, QD, C1D21, read-out: AUC0–last, Median
  AUC(0-t): 2340 ng·h/mL
125 mg, QD, C1D21, read-out: Cmax, Mean
  Cmax: 147 ng/mL
125 mg, QD, C1D21, read-out: Cmax, Median
  Cmax: 188 ng/mL
125 mg, QD, C1D21, read-out: Tmax, Mean
  Tmax: 2 h
125 mg, QD, C1D21, read-out: Tmax, Median
  Tmax: 2 h
150 mg, 150 mg BID, C1D1, mean, n=5, plasma, read-out: AUC0–12
  AUC: 1050 ng·h/mL
150 mg, 150 mg BID, C1D1, mean, n=6, plasma, read-out: AUC0–last
  AUC(0-t): 2330 ng·h/mL
150 mg, 150 mg BID, C1D1, mean, n=6, plasma, read-out: Cmax
  Cmax: 236 ng/mL
150 mg, 150 mg BID, C1D1, mean, n=6, plasma, read-out: Tmax
  Tmax: 9 h
150 mg, 150 mg BID, C1D1, median, n=5, plasma, read-out: AUC0–12
  AUC: 1070 ng·h/mL
150 mg, 150 mg BID, C1D1, median, n=6, plasma, read-out: AUC0–last
  AUC(0-t): 1680 ng·h/mL
150 mg, 150 mg BID, C1D1, median, n=6, plasma, read-out: Cmax
  Cmax: 208 ng/mL
150 mg, 150 mg BID, C1D1, median, n=6, plasma, read-out: Tmax
  Tmax: 2 h
150 mg, 150 mg BID, C1D21, mean, n=6, plasma, read-out: AUC0–12
  AUC: 4620 ng·h/mL
150 mg, 150 mg BID, C1D21, mean, n=6, plasma, read-out: AUC0–last
  AUC(0-t): 9080 ng·h/mL
150 mg, 150 mg BID, C1D21, mean, n=6, plasma, read-out: Cmax
  Cmax: 527 ng/mL
150 mg, 150 mg BID, C1D21, mean, n=6, plasma, read-out: Tmax
  Tmax: 3.5 h
150 mg, 150 mg BID, C1D21, median, n=6, plasma, read-out: AUC0–12
  AUC: 4860 ng·h/mL
150 mg, 150 mg BID, C1D21, median, n=6, plasma, read-out: AUC0–last
  AUC(0-t): 10000 ng·h/mL
150 mg, 150 mg BID, C1D21, median, n=6, plasma, read-out: Cmax
  Cmax: 549 ng/mL
150 mg, 150 mg BID, C1D21, median, n=6, plasma, read-out: Tmax
  Tmax: 2.9 h
150 mg, QD, C1D1, read-out: AUC0–12, Mean
  AUC: 946 ng·h/mL
150 mg, QD, C1D1, read-out: AUC0–12, Median
  AUC: 892 ng·h/mL
150 mg, QD, C1D1, read-out: AUC0–last, Mean
  AUC(0-t): 1610 ng·h/mL
150 mg, QD, C1D1, read-out: AUC0–last, Median
  AUC(0-t): 1460 ng·h/mL
150 mg, QD, C1D1, read-out: Cmax, Mean
  Cmax: 156 ng/mL
150 mg, QD, C1D1, read-out: Cmax, Median
  Cmax: 126 ng/mL
150 mg, QD, C1D1, read-out: Tmax, Mean
  Tmax: 5.5 h
150 mg, QD, C1D1, read-out: Tmax, Median
  Tmax: 2.1 h
150 mg, QD, C1D21, read-out: AUC0–12, Mean
  AUC: 2140 ng·h/mL
150 mg, QD, C1D21, read-out: AUC0–12, Median
  AUC: 2080 ng·h/mL
150 mg, QD, C1D21, read-out: AUC0–last, Mean
  AUC(0-t): 3620 ng·h/mL
150 mg, QD, C1D21, read-out: AUC0–last, Median
  AUC(0-t): 3510 ng·h/mL
150 mg, QD, C1D21, read-out: Cmax, Mean
  Cmax: 254 ng/mL
150 mg, QD, C1D21, read-out: Cmax, Median
  Cmax: 269 ng/mL
150 mg, QD, C1D21, read-out: Tmax, Mean
  Tmax: 2.6 h
150 mg, QD, C1D21, read-out: Tmax, Median
  Tmax: 2 h
175 mg, QD, C1D1, n 1, read-out: AUC0–12, Mean
  AUC: 1500 ng·h/mL
175 mg, QD, C1D1, n 1, read-out: AUC0–12, Median
  AUC: 1500 ng·h/mL
175 mg, QD, C1D1, read-out: AUC0–last, Mean
  AUC(0-t): 1580 ng·h/mL
175 mg, QD, C1D1, read-out: AUC0–last, Median
  AUC(0-t): 1580 ng·h/mL
175 mg, QD, C1D1, read-out: Cmax, Mean
  Cmax: 357 ng/mL
175 mg, QD, C1D1, read-out: Cmax, Median
  Cmax: 357 ng/mL
175 mg, QD, C1D1, read-out: Tmax, Mean
  Tmax: 2 h
175 mg, QD, C1D1, read-out: Tmax, Median
  Tmax: 2 h
200 mg, 200 mg BID, C1D1, mean, n=3, plasma, read-out: AUC0–12
  AUC: 985 ng·h/mL
200 mg, 200 mg BID, C1D1, mean, n=3, plasma, read-out: AUC0–last
  AUC(0-t): 2050 ng·h/mL
200 mg, 200 mg BID, C1D1, mean, n=3, plasma, read-out: Cmax
  Cmax: 174 ng/mL
200 mg, 200 mg BID, C1D1, mean, n=3, plasma, read-out: Tmax
  Tmax: 9.7 h
200 mg, 200 mg BID, C1D1, median, n=3, plasma, read-out: AUC0–12
  AUC: 1130 ng·h/mL
200 mg, 200 mg BID, C1D1, median, n=3, plasma, read-out: AUC0–last
  AUC(0-t): 2170 ng·h/mL
200 mg, 200 mg BID, C1D1, median, n=3, plasma, read-out: Cmax
  Cmax: 178 ng/mL
200 mg, 200 mg BID, C1D1, median, n=3, plasma, read-out: Tmax
  Tmax: 3.1 h
200 mg, 200 mg BID, C1D21, mean, n=2, plasma, read-out: AUC0–12
  AUC: 8550 ng·h/mL
200 mg, 200 mg BID, C1D21, mean, n=2, plasma, read-out: AUC0–last
  AUC(0-t): 16400 ng·h/mL
200 mg, 200 mg BID, C1D21, mean, n=2, plasma, read-out: Cmax
  Cmax: 874 ng/mL
200 mg, 200 mg BID, C1D21, mean, n=2, plasma, read-out: Tmax
  Tmax: 2.4 h
200 mg, 200 mg BID, C1D21, median, n=2, plasma, read-out: AUC0–12
  AUC: 8550 ng·h/mL
200 mg, 200 mg BID, C1D21, median, n=2, plasma, read-out: AUC0–last
  AUC(0-t): 16400 ng·h/mL
200 mg, 200 mg BID, C1D21, median, n=2, plasma, read-out: Cmax
  Cmax: 874 ng/mL
200 mg, 200 mg BID, C1D21, median, n=2, plasma, read-out: Tmax
  Tmax: 2.4 h
BID, 75 mg to 200 mg, C1D1, read-out: mean AUC0–last, range across cohorts
  AUC(0-t): 1170 to 2330 ng·h/mL
BID, 75 mg to 200 mg, C1D1, read-out: mean Cmax, range across cohorts
  Cmax: 95.2 to 236 ng/mL
BID, 75 mg to 200 mg, C1D1, read-out: median Tmax, range across cohorts
  Tmax: 2 to 3.1 h
BID, 75 mg to 200 mg, C1D21, read-out: mean AUC0–last, range across cohorts
  AUC(0-t): 4280 to 16400 ng·h/mL
BID, 75 mg to 200 mg, C1D21, read-out: mean Cmax, range across cohorts
  Cmax: 249 to 874 ng/mL
BID, 75 mg to 200 mg, C1D21, read-out: median Tmax, range across cohorts
  Tmax: 1.9 to 2.9 h
QD, 25 mg to 150 mg, C1D21, read-out: mean AUC0–last, range across cohorts
  AUC(0-t): 461 to 3620 ng·h/mL
QD, 25 mg to 150 mg, C1D21, read-out: mean Cmax, range across cohorts
  Cmax: 41.9 to 436 ng/mL
QD, 25 mg to 150 mg, C1D21, read-out: median Tmax, range across cohorts
  Tmax: 1.5 to 2.1 h
QD, 25 mg to 175 mg, C1D1, read-out: mean AUC0–last, range across cohorts
  AUC(0-t): 270 to 1580 ng·h/mL
QD, 25 mg to 175 mg, C1D1, read-out: mean Cmax, range across cohorts
  Cmax: 32.5 to 357 ng/mL
QD, 25 mg to 175 mg, C1D1, read-out: median Tmax, range across cohorts
  Tmax: 0.9 to 2.1 h
After 21 days of BID dosing
  concentration at 21 days: 146 to 472 ng/mL
After 21 days of QD dosing
  concentration at 21 days: 10.3 to 152 ng/mL
overall, as stated in the abstract, read-out: median Tmax
  Tmax: 2 h
Multiple doses, QD and BID
  steady state of plasma concentrations: appeared to reach a steady state by day 21
